Blank lines part the entries; values can stand above or below the molecule they belong to. Ends that are not written are not given here. Peptide text beside a SMILES is read from it. * marks the point of attachment. Biotin = O=C1N[C@H]2[C@H](CS[C@H]2CCCCC(=O)*)N1
Tests used:
Assay type in all cases: binding
[1] = target: T1, NeDLG (PDZ Domain 1, 2) (Homo sapiens, UniProt Q92796); test: G' assay, TABLE 12; conditions: A450 nm class of biotinylated PL peptide bound; 0 in conc columns = peptide 10 uM, protein 5 ug/ml
T1 construct: When more than one PDZ domain was cloned, the DNA portion cloned represents the PDZ domains and the cDNA portion located between individual domains; made in house; host or cells: E. coli (DH5alpha, BL21 or JM109)
T1 sequence (Q92796 129-315 limits assumed): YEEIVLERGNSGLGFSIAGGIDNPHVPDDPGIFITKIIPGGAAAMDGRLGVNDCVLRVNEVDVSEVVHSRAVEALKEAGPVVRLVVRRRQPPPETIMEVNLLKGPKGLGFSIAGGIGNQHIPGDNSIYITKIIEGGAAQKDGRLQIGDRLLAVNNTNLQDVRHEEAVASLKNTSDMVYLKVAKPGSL
How it was run: (§1)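 PL peptide binding to PDZ domain protein, peptide at 10 uM; protein at 5 ug/ml unless another concentration is listed for Kd determination. Bound peptide read at A450 nm and binned into classes 0–5.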

[2] = target: T2, PSD95 (PDZ Domain 1, 2, 3) (Homo sapiens, UniProt P78352); test: G' assay, TABLE 12; conditions: A450 nm class of biotinylated PL peptide bound; 0 in conc columns = peptide 10 uM, protein 5 ug/ml
T2 construct: When more than one PDZ domain was cloned, the DNA portion cloned represents the PDZ domains and the cDNA portion located between individual domains; made in house; host or cells: E. coli (DH5alpha, BL21 or JM109)
T2 sequence (P78352 58-398 limits assumed): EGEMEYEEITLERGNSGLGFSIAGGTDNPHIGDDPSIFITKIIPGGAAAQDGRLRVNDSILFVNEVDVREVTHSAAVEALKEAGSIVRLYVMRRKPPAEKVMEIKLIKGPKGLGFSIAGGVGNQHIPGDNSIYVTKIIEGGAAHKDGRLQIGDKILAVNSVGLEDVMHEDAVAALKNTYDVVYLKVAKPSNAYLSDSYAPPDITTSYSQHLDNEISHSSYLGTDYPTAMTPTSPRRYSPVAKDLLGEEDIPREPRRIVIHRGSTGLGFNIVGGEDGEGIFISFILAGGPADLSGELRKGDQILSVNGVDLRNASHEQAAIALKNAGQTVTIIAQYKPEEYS
How it was run: as §1

[3] = target: T3, PDZ protein (GST-PDZ fusion) (Homo sapiens, UniProt P29074); test: G' assay (10 uM PL peptide), results of TABLE 7 and TABLE 12; conditions: PDZ PTN-4, PDZ Domain 1
T3 construct: made in house; host or cells: E. coli (DH5alpha, BL21 or JM109)
T3 sequence (P29074 1-926): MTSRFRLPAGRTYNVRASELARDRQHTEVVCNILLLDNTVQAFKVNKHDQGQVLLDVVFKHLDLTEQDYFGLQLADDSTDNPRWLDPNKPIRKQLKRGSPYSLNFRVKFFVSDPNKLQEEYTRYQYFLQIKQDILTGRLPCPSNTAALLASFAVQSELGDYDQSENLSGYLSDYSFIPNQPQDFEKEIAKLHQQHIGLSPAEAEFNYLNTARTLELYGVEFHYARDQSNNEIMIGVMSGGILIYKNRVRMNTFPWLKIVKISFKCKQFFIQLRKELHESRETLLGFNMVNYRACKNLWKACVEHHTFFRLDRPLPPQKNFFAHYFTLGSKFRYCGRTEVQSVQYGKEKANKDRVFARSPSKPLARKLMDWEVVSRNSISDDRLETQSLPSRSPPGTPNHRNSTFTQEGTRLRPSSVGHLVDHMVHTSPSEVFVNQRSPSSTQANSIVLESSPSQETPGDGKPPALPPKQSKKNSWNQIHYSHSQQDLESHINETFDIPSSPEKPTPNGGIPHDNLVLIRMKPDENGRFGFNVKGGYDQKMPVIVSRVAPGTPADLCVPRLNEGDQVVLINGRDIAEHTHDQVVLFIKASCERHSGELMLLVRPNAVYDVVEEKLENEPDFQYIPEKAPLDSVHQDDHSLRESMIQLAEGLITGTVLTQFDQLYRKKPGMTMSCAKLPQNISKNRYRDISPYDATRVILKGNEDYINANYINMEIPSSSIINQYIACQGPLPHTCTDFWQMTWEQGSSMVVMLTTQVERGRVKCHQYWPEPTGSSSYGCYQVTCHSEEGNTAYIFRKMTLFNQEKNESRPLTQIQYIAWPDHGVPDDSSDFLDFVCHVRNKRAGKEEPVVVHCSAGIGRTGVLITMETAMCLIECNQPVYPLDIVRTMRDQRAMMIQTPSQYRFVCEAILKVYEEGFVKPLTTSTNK
How it was run: (§2)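 Biotinylated PL peptides at 10 uM (vs 20 uM in G^0 assay) bound to GST-PDZ fusions; PDZ protein at 5 ug/ml unless another concentration listed. Bound peptide read as A450 nm, classified 0–5 (0 = A450 0; 5 = A450 >4 repeated).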

[4] = target: T4, KIAA807 (Homo sapiens, UniProt Q6P0Q8); test: G' assay, TABLE 12; conditions: A450 nm class of biotinylated PL peptide bound; 0 in conc columns = peptide 10 uM, protein 5 ug/ml
T4 construct: made in house; host or cells: E. coli (DH5alpha, BL21 or JM109)
T4 sequence (Q6P0Q8 1104-1192 limits assumed): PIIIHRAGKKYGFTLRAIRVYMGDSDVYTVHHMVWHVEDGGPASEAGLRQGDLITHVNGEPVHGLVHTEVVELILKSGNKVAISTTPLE
How it was run: as §1

[5] = target: T5, PDZ protein (GST-PDZ fusion) (Homo sapiens, UniProt Q9ULJ8); test: G' assay (10 uM PL peptide), results of TABLE 7 and TABLE 12; conditions: PDZ KIAA1222, PDZ Domain 1
T5 construct: made in house; host or cells: E. coli (DH5alpha, BL21 or JM109)
T5 sequence (Q9ULJ8 whole entry, the tested form may be a part): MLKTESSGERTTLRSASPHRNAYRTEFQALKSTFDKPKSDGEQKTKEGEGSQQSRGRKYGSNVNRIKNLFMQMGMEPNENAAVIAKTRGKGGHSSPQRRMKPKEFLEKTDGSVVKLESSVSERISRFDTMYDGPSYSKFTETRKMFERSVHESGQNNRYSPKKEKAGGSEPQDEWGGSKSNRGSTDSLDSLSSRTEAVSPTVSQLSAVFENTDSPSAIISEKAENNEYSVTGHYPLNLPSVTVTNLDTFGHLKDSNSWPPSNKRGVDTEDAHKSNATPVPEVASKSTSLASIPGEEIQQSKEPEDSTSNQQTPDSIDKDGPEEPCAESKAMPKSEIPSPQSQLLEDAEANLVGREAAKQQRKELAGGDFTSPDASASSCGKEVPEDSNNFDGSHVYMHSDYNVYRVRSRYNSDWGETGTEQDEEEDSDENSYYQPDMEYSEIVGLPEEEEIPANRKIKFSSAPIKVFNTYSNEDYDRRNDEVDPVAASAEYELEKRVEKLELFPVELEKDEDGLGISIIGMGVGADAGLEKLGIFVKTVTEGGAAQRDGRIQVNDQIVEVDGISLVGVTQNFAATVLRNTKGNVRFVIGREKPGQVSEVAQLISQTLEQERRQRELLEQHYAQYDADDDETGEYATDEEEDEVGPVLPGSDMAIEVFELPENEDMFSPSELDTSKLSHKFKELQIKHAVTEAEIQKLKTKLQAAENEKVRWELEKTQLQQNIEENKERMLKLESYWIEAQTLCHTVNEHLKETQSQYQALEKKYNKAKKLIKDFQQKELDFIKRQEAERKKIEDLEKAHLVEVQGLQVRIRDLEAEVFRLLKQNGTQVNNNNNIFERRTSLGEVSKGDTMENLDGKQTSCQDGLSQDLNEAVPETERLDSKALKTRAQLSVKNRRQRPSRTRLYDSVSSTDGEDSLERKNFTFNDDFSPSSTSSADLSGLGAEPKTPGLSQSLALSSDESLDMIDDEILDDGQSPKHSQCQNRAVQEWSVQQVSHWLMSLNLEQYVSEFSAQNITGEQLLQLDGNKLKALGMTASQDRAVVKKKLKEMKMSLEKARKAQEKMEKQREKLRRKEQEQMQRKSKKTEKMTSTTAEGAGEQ
How it was run: as §2

Classification [1]: 1 (A450 nm 0-1) | Classification [2]: 1 (A450 nm 0-1)
Molecule: CC[C@H](C)[C@H](NC(=O)[C@H](CCC(=O)O)NC(=O)[C@H](CC(N)=O)NC(=O)[C@H](CCCNC(=N)N)NC(=O)[C@H](Cc1ccccc1)NC(=O)[C@H](CC(N)=O)NC(=O)[C@H](CO)NC(=O)[C@H](CC(N)=O)NC(=O)[C@H](CCC(=O)O)NC(=O)[C@H](CO)NC(=O)[C@H](CC(=O)O)NC(=O)[C@H](CO)NC(=O)[C@@H](NC(=O)[C@@H](NC(=O)[C@H](CC(=O)O)NC(=O)[C@H](CCCCN)NC(=O)CCCC[C@@H]1SC[C@@H]2NC(=O)N[C@@H]21)[C@@H](C)CC)[C@@H](C)O)C(=O)N[C@@H](CCC(N)=O)C(=O)N[C@@H](CO)C(=O)N[C@@H](CC(C)C)C(=O)N[C@H](C(=O)O)C(C)C [CD95] (Biotin-KDITSDSENSNFRNEIQSLV-OH; C-terminus assumed)

Classification [5]: 1 (A450 nm 0-1)
Molecule: CC[C@H](C)[C@H](NC(=O)[C@H](Cc1ccc(O)cc1)NC(=O)[C@@H](NC(=O)[C@@H]1CCCN1C(=O)[C@H](CCC(N)=O)NC(=O)[C@H](CCC(=O)O)NC(=O)[C@H](CCC(N)=O)NC(=O)[C@H](C)NC(=O)[C@@H](NC(=O)[C@H](CC(C)C)NC(=O)[C@H](CC(C)C)NC(=O)[C@H](CCCNC(=N)N)NC(=O)[C@H](Cc1ccc(O)cc1)NC(=O)[C@H](CCSC)NC(=O)[C@H](C)NC(=O)[C@H](C)NC(=O)[C@@H]1CCCN1C(=O)[C@H](CCSC)NC(=O)[C@@H](NC(=O)[C@H](CCCCN)NC(=O)CCCC[C@@H]1SC[C@@H]2NC(=O)N[C@@H]21)[C@@H](C)O)[C@@H](C)O)C(C)C)C(=O)O [MINT-1] (Biotin-KTMPAAMYRLLTAQEQPVYI-OH; C-terminus assumed)

Classification [5]: 1 (A450 nm 0-1)
Molecule: KTMPAAMFRLLTGQETPLYI (Biotin-KTMPAAMFRLLTGQETPLYI) [MINT-2]

Classification [3]: 1 (A450 nm 0-1) | Classification [4]: 5 (A450 nm of 4 more than 2× repeated)
Molecule: QATSRNGHSARQHVVADTEL (Biotin-QATSRNGHSARQHVVADTEL) [CD34]

Further lines, the molecule ahead of its results:

Molecule: CC(C)C[C@H](NC(=O)[C@H](C)NC(=O)[C@@H](NC(=O)[C@H](CCC(=O)O)NC(=O)[C@H](CCCNC(=N)N)NC(=O)[C@H](CCCNC(=N)N)NC(=O)CNC(=O)[C@H](CCC(N)=O)NC(=O)[C@H](CC(C)C)NC(=O)[C@H](CCCNC(=N)N)NC(=O)CNC(=O)CNC(=O)[C@H](CCCNC(=N)N)NC(=O)[C@H](C)NC(=O)[C@H](CO)NC(=O)[C@H](CCCNC(=N)N)NC(=O)CNC(=O)CNC(=O)[C@H](C)NC(=O)[C@H](C)NC(=O)CCCC[C@@H]1SC[C@@H]2NC(=O)N[C@@H]21)[C@@H](C)O)C(=O)O [HPV E6 33 (modified)] (Biotin-AAGGRSARGGRLQGRRETAL-OH; C-terminus assumed)
Classification [3]: 1 (A450 nm 0-1)

Molecule: TQGFPGPATWRRISSLESEV
Classification [3]: 2 (A450 nm 1-2)

Molecule: CC[C@H](C)[C@H](NC(=O)[C@H](CO)NC(=O)[C@H](CCC(=O)O)NC(=O)[C@H](Cc1ccc(O)cc1)NC(=O)[C@H](CC(=O)O)NC(=O)[C@H](CC(N)=O)NC(=O)[C@H](CCC(=O)O)NC(=O)[C@H](CCCCN)NC(=O)CCCC[C@@H]1SC[C@@H]2NC(=O)N[C@@H]21)C(=O)N[C@@H](CO)C(=O)N[C@@H](CC(=O)O)C(=O)N[C@@H](CC(C)C)C(=O)N[C@@H](CCC(N)=O)C(=O)N[C@@H](CCC(N)=O)C(=O)NCC(=O)N[C@@H](CCCNC(=N)N)C(=O)N[C@@H](CC(=O)O)C(=O)N[C@H](C(=O)N[C@H](C(=O)N[C@@H](CCCNC(=N)N)C(=O)N[C@@H](CC(C)C)C(=O)O)[C@@H](C)O)[C@@H](C)CC [PAG] (Biotin-KENDYESISDLQQGRDITRL-OH; C-terminus assumed)
Classification [4]: 5 (A450 nm of 4 more than 2× repeated)

Molecule: CC[C@H](C)[C@H](NC(=O)[C@H](CCC(N)=O)NC(=O)CCCC[C@@H]1SC[C@@H]2NC(=O)N[C@@H]21)C(=O)N[C@@H](CO)C(=O)N1CCC[C@H]1C(=O)NCC(=O)NCC(=O)N[C@@H](CC(C)C)C(=O)N[C@@H](CCC(=O)O)C(=O)N1CCC[C@H]1C(=O)N1CCC[C@H]1C(=O)N[C@@H](CO)C(=O)N[C@@H](CCC(=O)O)C(=O)N[C@@H](CCCCN)C(=O)N[C@@H](Cc1c[nH]cn1)C(=O)N[C@@H](Cc1ccccc1)C(=O)N[C@@H](CCCNC(=N)N)C(=O)N[C@@H](CCC(=O)O)C(=O)N[C@H](C(=O)N[C@@H](CCC(=O)O)C(=O)N[C@H](C(=O)O)C(C)C)[C@@H](C)O [Tax]
Classification [3]: 2 (A450 nm 1-2) | Classification [1]: 5 (A450 nm of 4 more than 2× repeated) | Classification [2]: 5 (A450 nm of 4 more than 2× repeated) | Classification [4]: 5 (A450 nm of 4 more than 2× repeated)

Molecule: CSCC[C@H](NC(=O)[C@H](C)NC(=O)[C@H](CCCNC(=N)N)NC(=O)CNC(=O)[C@@H](NC(=O)[C@H](Cc1c[nH]c2ccccc12)NC(=O)[C@H](CCCNC(=N)N)NC(=O)CNC(=O)CCCC[C@@H]1SC[C@@H]2NC(=O)N[C@@H]21)[C@@H](C)O)C(=O)N[C@@H](CO)C(=O)N[C@@H](C)C(=O)N[C@@H](Cc1c[nH]c2ccccc12)C(=O)N[C@@H](CCCCN)C(=O)N1CCC[C@H]1C(=O)N[C@H](C(=O)N[C@@H](CCCNC(=N)N)C(=O)N[C@@H](CCCNC(=N)N)C(=O)N[C@@H](CCC(=O)O)C(=O)N[C@H](C(=O)N[C@@H](CCC(=O)O)C(=O)N[C@H](C(=O)O)C(C)C)[C@@H](C)O)[C@@H](C)O [HPV E6 #35 (modified)] (Biotin-GRWTGRAMSAWKPTRRETEV-OH; C-terminus assumed)
Classification [3]: 4 (A450 nm 3-4)

Molecule: CC[C@H](C)[C@H](NC(=O)[C@H](CC(=O)O)NC(=O)[C@H](CCC(=O)O)NC(=O)[C@H](CCCNC(=N)N)NC(=O)[C@@H](NC(=O)CCCC[C@@H]1SC[C@@H]2NC(=O)N[C@@H]21)[C@@H](C)O)C(=O)N[C@@H](Cc1ccc(O)cc1)C(=O)N[C@H](C(=O)N[C@@H](CC(N)=O)C(=O)N[C@@H](Cc1ccc(O)cc1)C(=O)N1CCC[C@H]1C(=O)N[C@H](C(=O)N[C@@H](Cc1ccccc1)C(=O)N[C@@H](CO)C(=O)N[C@@H](CCCNC(=N)N)C(=O)N[C@@H](CCCNC(=N)N)C(=O)N1CCC[C@H]1C(=O)N[C@@H](CCCCN)C(=O)N[C@H](C(=O)N[C@@H](CCCNC(=N)N)C(=O)N[C@H](C(=O)O)C(C)C)[C@@H](C)O)[C@@H](C)O)C(C)C [DNAM-1] (Biotin-TREDIYVNYPTFSRRPKTRV-OH; C-terminus assumed)
Classification [1]: 2 (A450 nm 1-2) | Classification [2]: 2 (A450 nm 1-2)

Molecule: ARHRVTSYTSSSVNVSSNL (Biotin-ARHRVTSYTSSSVNVSSNL) [IL-8RB]
Classification [2]: 1 (A450 nm 0-1)

Molecule: ISGTPTSTMVHGMTSSSSVV (Biotin-ISGTPTSTMVHGMTSSSSVV) [Clasp-2]
Classification [1]: 2 (A450 nm 1-2) | Classification [2]: 2 (A450 nm 1-2)

Molecule: LASKSAEEGKQIPDSLSTDL (Biotin-LASKSAEEGKQIPDSLSTDL) [Dock2]
Classification [4]: 5 (A450 nm of 4 more than 2× repeated)

Molecule: CC[C@H](C)[C@H](NC(=O)[C@H](CCCCN)NC(=O)[C@@H](NC(=O)[C@H](CO)NC(=O)[C@@H]1CCCN1C(=O)[C@H](Cc1ccccc1)NC(=O)[C@@H](NC(=O)[C@@H](NC(=O)[C@H](CCCNC(=N)N)NC(=O)[C@H](CCC(=O)O)NC(=O)[C@H](CC(C)C)NC(=O)[C@H](CC(C)C)NC(=O)[C@H](CC(C)C)NC(=O)[C@@H](NC(=O)CNC(=O)[C@@H](NC(=O)CCCC[C@@H]1SC[C@@H]2NC(=O)N[C@@H]21)C(C)C)[C@@H](C)O)C(C)C)[C@@H](C)CC)C(C)C)C(=O)N[C@@H](C)C(=O)N[C@H](C(=O)N[C@@H](CC(C)C)C(=O)N[C@H](C(=O)O)C(C)C)[C@@H](C)O [Adenovirus E4 Type9]
Classification ([5]; PL peptide 10 uM): 1 (A450 nm 0-1)

Source: US20050282743A1, “Molecular interactions in cells” (Arbor Vita Corporation, priority 2001, published 2005)
